Entries after “also recorded” stand apart in the source; their conditions may differ.
How the values were obtained:
[1] = biological target: TTR (Homo sapiens, UniProt P02766); test: ITC, binary complex TTR + Aβ peptide; format: binding; details: thermograms of binary complexes; HEPES/glycine pH 7.4, 5% DMSO, 25 °C
[2] = test system: mice model of AD; details: in vivo administration; cited from earlier work
[3] = biological target: TTR/Aβ(1–42) complex (Homo sapiens, UniProt P02766); test: ITC, ternary complex: [TTR + stabilizer] titrated with Aβ; format: binding; details: compared with TTR/Aβ(1–42) without stabilizer
[4] = biological target: TTR/Aβ(12–28) complex (Homo sapiens, UniProt P02766); test: as above; format: binding; details: compared with TTR + Aβ(12–28) without stabilizer

Row | Molecule | interaction with TTR by ITC (in words) [1] | chaperoning effect on the TTR/Aβ(1–42) interaction (in words) [3] | further results
1 | Y EVHHQ KLVFF [Aβ(10–20) (6)] | very low enthalpy change | – | –
2 | DAEFR HDSGY E [Aβ(1–11) (5)] | no significant interaction | – | –
3 | O=C(O)c1ccc2nc(-c3cc(Cl)cc(Cl)c3)oc2c1 [Tafamidis, 2-(3,5-dichlorophenyl)-1,3-benzoxazole-6-carboxylic acid] | – | – | chaperoning effect on the TTR/Aβ(1–42) interaction (in words) ([3]; listed as Tafamidis (2)): negligible effect; also recorded: chaperoning effect could not be observed; also recorded: not detected; effect of the stabilizer on the TTR/Aβ(12–28) complex (in words) ([4]; listed as Tafamidis (2)): do not enhance the TTR/Aβ interaction; also recorded: negligible

Second part, led by results:

Row | interaction with TTR by ITC (in words) [1] | chaperoning effect on the TTR/Aβ(1–42) interaction (in words) [3] | Molecule | further results
4 | no significant interaction | – | EDVG SNKGA IIGLM [Aβ(25–35) (8)] | –
5 | – | cooperative effect | O=C(O)c1cc(-c2ccc(F)cc2F)cc(I)c1O [IDIF, 2',4'-difluoro-4-hydroxy-5-iodo-1,1'-biphenyl-3-carboxylic acid] | effect in AD mice (brain Aβ, cognition) [2]: decrease in brain Aβ levels and deposition; effect of the stabilizer on the TTR/Aβ(12–28) complex (in words) [4]: stabilizing
6 | – | chaperoning effect could not be observed | O=C(O)c1cc(-c2ccc(F)cc2F)ccc1O [Diflunisal, 5-(2,4-difluorophenyl)-2-hydroxy-benzoic acid] | effect of the stabilizer on the TTR/Aβ(12–28) complex (in words) ([4]; listed as diflunisal (1)): do not enhance the TTR/Aβ interaction; also recorded: negligible

Reference: PMC7115756 (Journal of Medicinal Chemistry, 2020)
